In ChEMBL document CHEMBL5360672, “Identification of Novel Dual-Target Estrogen Receptor α Degraders with Tubulin Inhibitory Activity for the Treatment of Endocrine-Resistant Breast Cancer” (J Med Chem, 2023):

Experiments:
[1] = Cytotoxicity against human MCF-10A cells assessed as inhibition of cell proliferation incubated for 72 hrs by CCK8 assay; type: toxicity, cell-based
[2] = target: T1, Estrogen receptor (Homo sapiens) (UniProt P03372); experiment: Binding affinity to human ERalpha assessed as relative binding affinity incubated under vibration for 1 min followed by 2 hrs incubation under dark condition by fluorescence polarization assay relative to estradiol; details: time 121.0 min
T1 sequence (whole entry): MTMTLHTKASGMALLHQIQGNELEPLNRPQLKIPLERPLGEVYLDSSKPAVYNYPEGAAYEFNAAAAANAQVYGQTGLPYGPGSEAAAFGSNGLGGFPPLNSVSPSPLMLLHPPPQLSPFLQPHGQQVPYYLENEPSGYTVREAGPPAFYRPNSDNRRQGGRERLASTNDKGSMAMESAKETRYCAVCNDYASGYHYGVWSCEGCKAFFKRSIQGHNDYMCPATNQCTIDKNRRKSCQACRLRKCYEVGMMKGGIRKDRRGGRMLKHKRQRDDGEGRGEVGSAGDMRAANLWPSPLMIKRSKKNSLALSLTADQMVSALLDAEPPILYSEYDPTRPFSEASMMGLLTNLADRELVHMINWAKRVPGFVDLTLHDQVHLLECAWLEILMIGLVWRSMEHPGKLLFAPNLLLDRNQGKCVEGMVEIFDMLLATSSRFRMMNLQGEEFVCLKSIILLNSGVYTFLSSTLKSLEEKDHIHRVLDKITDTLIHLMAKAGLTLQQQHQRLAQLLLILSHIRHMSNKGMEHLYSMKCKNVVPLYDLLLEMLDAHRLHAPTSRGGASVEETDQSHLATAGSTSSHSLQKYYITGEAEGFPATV

[3] = target: Estrogen receptor beta (Homo sapiens) (UniProt Q92731); experiment: Binding affinity to human ERbeta assessed as relative binding affinity incubated under vibration for 1 min followed by 2 hrs incubation under dark condition by fluorescence polarization assay relative to estradiol; details: time 121.0 min
Sequence of Estrogen receptor beta (Homo sapiens) (Q92731 whole entry): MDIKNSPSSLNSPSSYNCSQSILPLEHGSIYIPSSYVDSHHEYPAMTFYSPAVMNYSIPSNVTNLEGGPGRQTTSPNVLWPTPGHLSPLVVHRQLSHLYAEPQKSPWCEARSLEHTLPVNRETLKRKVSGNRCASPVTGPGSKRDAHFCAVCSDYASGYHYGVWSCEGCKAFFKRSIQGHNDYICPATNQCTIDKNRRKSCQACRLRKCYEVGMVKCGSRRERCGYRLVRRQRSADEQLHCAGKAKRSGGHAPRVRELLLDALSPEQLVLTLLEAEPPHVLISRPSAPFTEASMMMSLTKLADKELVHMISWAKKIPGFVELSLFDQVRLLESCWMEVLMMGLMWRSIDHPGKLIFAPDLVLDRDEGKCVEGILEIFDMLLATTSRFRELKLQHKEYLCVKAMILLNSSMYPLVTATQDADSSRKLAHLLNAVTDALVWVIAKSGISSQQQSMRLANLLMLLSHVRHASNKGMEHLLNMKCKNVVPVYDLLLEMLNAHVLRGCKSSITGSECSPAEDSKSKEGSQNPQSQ

Homo sapiens = organism: Homo sapiens; experiment: Selectivity ratio of relative binding affinity for human ERalpha to relative binding affinity to human ERbeta
T47D = experiment: Antiproliferative activity against ERalpha positive human T47D cells assessed as inhibition of cell proliferation incubated for 72 hrs by CCK8 assay; type: functional, cell-based
MCF7 = experiment: Antiproliferative activity against ERalpha positive human MCF7 cells assessed as inhibition of cell proliferation incubated for 72 hrs by CCK8 assay; type: functional, cell-based; details: MCF7, 72 h
[4] = Selectivity index, ratio of IC50 for cytotoxicity against human MCF-10A cells to IC50 for antiproliferative activity against human MCF7 cells; type: toxicity, cell-based; details: MCF-10A cells and MCF7 cells, read-out: Ratio IC50

Compound	IC50 at 72 h [1]	RBA [2]	RBA [3]	Selectivity ratio (Homo sapiens)	IC50 (T47D)	IC50 (MCF7)	selectivity ratio [4]
Cc1ccc(OS(=O)(=O)C2CC3OC2C(c2ccc(NC(=O)CCCCC[Se]C#N)cc2)=C3c2ccc(O)cc2)cc1 (stereo unspecified)	41.1 µM	3.31%	2.63%	1.26	3.13 µM	2.75 µM	15
N#C[Se]CCCCCC(=O)Nc1ccc(C2=C(c3ccc(O)cc3)C3CC(S(=O)(=O)Oc4cccc5ccccc45)C2O3)cc1 (stereo unspecified)	13.9 µM	15.5%	9%	1.72	1.71 µM	2.43 µM	5.72
N#C[Se]CCCCCC(=O)Nc1ccc(C2=C(c3ccc(O)cc3)C3CC(S(=O)(=O)Oc4ccccc4)C2O3)cc1 (stereo unspecified)	> 60 µM	4.72%	0.78%	6.05	3.21 µM	1.22 µM	> 49.2
N#C[Se]CCCCCC(=O)Nc1ccc(C2=C(c3ccc(O)cc3)C3CC(S(=O)(=O)Oc4cccc(Br)c4)C2O3)cc1 (stereo unspecified)	22.7 µM	0.59%	0.31%	1.9	2.84 µM	1.23 µM	18.5
N#C[Se]CCCCCCOc1ccc(OS(=O)(=O)C2CC3OC2C(c2ccc(O)cc2)=C3c2ccc(O)cc2)cc1 (stereo unspecified)	10.8 µM	9.98%	1.73%	5.77	7.47 µM	5.14 µM	2.1
N#C[Se]CCCCCC(=O)Nc1ccc(C2=C(c3ccc(O)cc3)C3CC(S(=O)(=O)Oc4ccc(Cl)cc4)C2O3)cc1 (stereo unspecified)	11.8 µM	0.6%	2.64%	0.23	3.52 µM	1.32 µM	8.94
N#C[Se]CCCCCC(=O)Nc1ccc(C2=C(c3ccc(O)cc3)C3CC(S(=O)(=O)Oc4ccccc4Br)C2O3)cc1 (stereo unspecified)	7.55 µM	2.21%	0.18%	12.3	1.71 µM	0.86 µM	8.78
COc1ccc(OS(=O)(=O)C2CC3OC2C(c2ccc(NC(=O)CCCCC[Se]C#N)cc2)=C3c2ccc(O)cc2)cc1 (stereo unspecified)	13.1 µM	0.97%	0.05%	19.4	1.97 µM	2.62 µM	4.99
N#C[Se]CCCCCC(=O)Nc1ccc(C2=C(c3ccc(O)cc3)C3CC(S(=O)(=O)Oc4ccc5ccccc5c4)C2O3)cc1 (stereo unspecified)	22.6 µM	4.51%	0.23%	19.6	> 31 µM	3 µM	7.52
N#C[Se]CC(=O)Nc1ccc(C2=C(c3ccc(O)cc3)C3CC(S(=O)(=O)Oc4ccccc4)C2O3)cc1 (stereo unspecified)	38.6 µM	0.57%	0.24%	2.38	24.6 µM	2.76 µM	14
N#C[Se]CCCCCC(=O)Nc1ccc(C2=C(c3ccc(O)cc3)C3CC(S(=O)(=O)Oc4ccc(O)cc4)C2O3)cc1 (stereo unspecified)	10.4 µM	7.83%	0.73%	10.7	4.98 µM	1.5 µM	6.94
COc1ccccc1OS(=O)(=O)C1CC2OC1C(c1ccc(NC(=O)CCCCC[Se]C#N)cc1)=C2c1ccc(O)cc1 (stereo unspecified)	7.37 µM	16%	1.29%	12.4	1.8 µM	0.49 µM	15
N#C[Se]CCCCCC(=O)Nc1ccc(C2=C(c3ccc(O)cc3)C3CC(S(=O)(=O)Oc4ccc(C(F)(F)F)cc4)C2O3)cc1 (stereo unspecified)	16.2 µM	4.43%	1.61%	2.75	3.02 µM	2.84 µM	5.72
N#C[Se]CCCCCC(=O)Nc1ccc(C2=C(c3ccc(O)cc3)C3CC(S(=O)(=O)Oc4ccc(Br)cc4)C2O3)cc1 (stereo unspecified)	18.6 µM	0.31%	3.48%	0.09	120 µM	1.85 µM	10.1
N#C[Se]CCCCCC(=O)Nc1ccc(C2=C(c3ccc(O)cc3)C3CC(S(=O)(=O)Oc4ccccc4C(F)(F)F)C2O3)cc1 (stereo unspecified)	12.9 µM	23.1%	5.79%	10.6	1.77 µM	0.35 µM	36.9
N#C[Se]CCCCCC(=O)Nc1ccc(C2=C(c3ccc(O)cc3)C3CC(S(=O)(=O)Oc4ccccc4Cl)C2O3)cc1 (stereo unspecified)	10.1 µM	8.21%	1.52%	5.4	2.55 µM	0.49 µM	20.7
N#C[Se]CCCCCC(=O)Nc1ccc(C2=C(c3ccc(O)cc3)C3CC(S(=O)(=O)Oc4cccc(O)c4)C2O3)cc1 (stereo unspecified)	> 60 µM	14.2%	0.91%	15.6	> 31 µM	1.29 µM	> 46.5
N#C[Se]CCCC(=O)Nc1ccc(C2=C(c3ccc(O)cc3)C3CC(S(=O)(=O)Oc4ccccc4)C2O3)cc1 (stereo unspecified)	59.9 µM	1.05%	1.7%	0.62	18.1 µM	2.02 µM	29.7
N#C[Se]CCCCCC(=O)Nc1ccc(C2=C(c3ccc(O)cc3)C3CC(S(=O)(=O)Oc4cccc(C(F)(F)F)c4)C2O3)cc1 (stereo unspecified)	53.6 µM	0.17%	0.3%	0.57	> 31 µM	0.57 µM	94.1
Cc1ccccc1OS(=O)(=O)C1CC2OC1C(c1ccc(NC(=O)CCCCC[Se]C#N)cc1)=C2c1ccc(O)cc1 (stereo unspecified)	10.2 µM	14.1%	3.12%	4.53	2.23 µM	0.62 µM	16.5
N#C[Se]CCCCCC(=O)Nc1ccc(C2=C(c3ccc(O)cc3)C3CC(S(=O)(=O)Oc4cccc(Cl)c4)C2O3)cc1 (stereo unspecified)	29.7 µM	4.08%	0.1%	40.8	4.09 µM	0.7 µM	42.4
Cc1cccc(OS(=O)(=O)C2CC3OC2C(c2ccc(NC(=O)CCCCC[Se]C#N)cc2)=C3c2ccc(O)cc2)c1 (stereo unspecified)	30.2 µM	0.99%	1.29%	0.77	13.3 µM	0.71 µM	42.5
N#C[Se]CCCCCC(=O)Nc1ccc(C2=C(c3ccc(O)cc3)C3CC(S(=O)(=O)Oc4ccc(F)cc4)C2O3)cc1 (stereo unspecified)	11.5 µM	2.05%	3.74%	0.55	1.43 µM	1.18 µM	9.75
N#C[Se]CCCCCC(=O)Nc1ccc(C2=C(c3ccc(O)cc3)C3CC(S(=O)(=O)Oc4ccccc4O)C2O3)cc1 (stereo unspecified)	7.49 µM	30.9%	1.15%	26.9	3.58 µM	0.32 µM	23.4
COc1cc2c(c(OC)c1OC)-c1ccc(OC)c(=O)cc1[C@@H](NC(C)=O)CC2 [COLCHICINE]					0.00028 µM	0.001 µM	
N#C[Se]CCCCCC(=O)Nc1ccc(C2=C(c3ccc(O)cc3)C3CC(S(=O)(=O)Oc4cccc(F)c4)C2O3)cc1 (stereo unspecified)	17.5 µM	3.31%	0.53%	6.25	2.05 µM	0.78 µM	22.4
COc1cccc(OS(=O)(=O)C2CC3OC2C(c2ccc(NC(=O)CCCCC[Se]C#N)cc2)=C3c2ccc(O)cc2)c1 (stereo unspecified)	19.9 µM	12.1%	0.35%	34.7	3.21 µM	2.49 µM	7.99
N#C[Se]CCCCCCCC(=O)Nc1ccc(C2=C(c3ccc(O)cc3)C3CC(S(=O)(=O)Oc4ccccc4)C2O3)cc1 (stereo unspecified)	20.5 µM	0.71%	2.06%	0.34	> 31 µM	1.71 µM	12
